Experimental data as given in patent publication US10538738B2, “Megakaryocytic particles and microparticles for cell therapy and fate modification of stem and progenitor cells” (priority 2014, dated 2020).
Residues, ends and D or L forms follow the SMILES beside them. *: point of attachment. Cbz = O=C(OCc1ccccc1)*; CH2F = FC*

How the values were obtained:
Mks [1] = test: Shear-enhanced MkMP generation from Mks treated with caspase inhibitors; assay type: cell-based, human; conditions: d10 and d12 Mks, 10 μM inhibitor, shear flow 2.5 dyn/cm^2 for 0.5 hour
Experimental: Rectangular flow slides (μ-Slide 1^0.6 Luer, ibidi USA) were coated with 50 μg/mL vWF, and ca. 300,000 cultured Mks were seeded into each slide. Mks on slides were cultured overnight (21 hours) before being exposed to shear flow. Medium (IMDM supplemented with 10% BIT9500, 50 ng/mL TPO, 50 ng/mL rhSCF, 0.5 μg/mL hLDL and 6.25 mM nicotinamide) was perfused over Mks on slides by two syringe pumps (Dual NE-4000 pump; New Era Pump Systems) to achieve the desirable shear-stress level. For BrdU incorporation assays, the medium was supplemented with 10 μM BrdU (BD). During shear flow, some Mks were detached from the slide surface and released into the circulating medium. These are considered as non-adherent Mks. Adherent Mks were harvested for analysis using non-enzymatic cell dissociation buffer (Sigma-Aldrich). In some experiments, adherent Mks were fixed with 2% paraformaldehyde directly on slides and processed for immunofluorescence analysis. In some experiments, Mks were treated with caspase inhibitors, 10 μM z-VAD.fmk (Bachem) or 10 μM z-DEVD.fmk (Bachem) starting on d9. […]
For both static cultures and cultures exposed to shear flow, Mk cells were removed from the culture medium by centrifugation (150× g for 10 minutes). […] Concentrations of MkMPs (and of PMPs and Mks) were measured by flow cytometry using 1.34 μm microbeads (Sphero Tech) as standard. […]

Mks [2] = test: Shear-flow PPT and PLP generation from Mks treated with caspase inhibitors; assay type: cell-based, human; conditions: 10 μM inhibitor, shear flow 2.5 dyn/cm^2 for 0.5 hour
Experimental: Rectangular flow slides (μ-Slide 1^0.6 Luer, ibidi USA) were coated with 50 μg/mL vWF, and ca. 300,000 cultured Mks were seeded into each slide. Mks on slides were cultured overnight (21 hours) before being exposed to shear flow. Medium (IMDM supplemented with 10% BIT9500, 50 ng/mL TPO, 50 ng/mL rhSCF, 0.5 μg/mL hLDL and 6.25 mM nicotinamide) was perfused over Mks on slides by two syringe pumps (Dual NE-4000 pump; New Era Pump Systems) to achieve the desirable shear-stress level. For BrdU incorporation assays, the medium was supplemented with 10 μM BrdU (BD). During shear flow, some Mks were detached from the slide surface and released into the circulating medium. These are considered as non-adherent Mks. Adherent Mks were harvested for analysis using non-enzymatic cell dissociation buffer (Sigma-Aldrich). In some experiments, adherent Mks were fixed with 2% paraformaldehyde directly on slides and processed for immunofluorescence analysis. In some experiments, Mks were treated with caspase inhibitors, 10 μM z-VAD.fmk (Bachem) or 10 μM z-DEVD.fmk (Bachem) starting on d9. Inhibitor-treated Mks were seeded into flow slides at d9 or d11, were exposed to shear flow (2.5 dyn/cm^2 for 0.5 hour) in medium supplemented with the same inhibitor, and were harvested for PPT, PLP and CD41^+ microparticle counting.
Large cells were excluded from PLP preparations by centrifugation at 150× g for 10 minutes. PLPs were then pelleted by centrifugation at 1000× g for 10 minutes from the PLP-enriched supernatant. After one wash, PLPs were resuspended in Tyrode's buffer and used in platelet-stimulation assays. The number of PLPs and PPTs per slide was measured using a Multisizer™ 3 Coulter Counter (Beckman Coulter).
It has been shown that activation of caspase-3 and 9 is required for PPT formation. Here we wanted to investigate if shear stress affects caspase-3 activation in Mks. We chose caspase-3 as a marker of late apoptosis to complement our Annexin V studies above, which pertain to early apoptotic events. First, we confirmed that caspase-3 in indeed activated during in vitro Mk maturation with our culture protocol. […] We also observed a correlation between the activation level of caspase-3 in Mks (represented as the ratio of MFI of active caspase-3 over isotype control) and PPT formation (FIG. 4C), which is consistent with previous studies discussed above. […] Exposure of Mks for 2 hours to 1 dyn/cm^2 enhanced caspase-3 activation both at d10 and d12 (FIG. 4D) by 1.7 to 5.6 fold depending on the donor and day. Since, as discussed, caspase-3 activation is necessary for PPT formation, one mechanism by which shear stress may promote PPT formation (see below) is by enhancing caspase-3 activation. To investigate this hypothesis, Mks were treated with 10 μM z-VAD.fmk (pan-caspase inhibitor) or z-DEVD.fmk (caspase-3 inhibitor) and were then exposed to shear flow. After flow application, PLPs (d=1-3 μm) and PPTs (d=3-10 μm) were harvested and counted. The effect of shear stress on particle generation was assessed using the ratio of PLP or PPT number from one slide of Mks under flow conditions over that under static conditions. […] However, at d12, both of z-VAD fmk and z-DEVD.fmk decreased both the PPT and PLP ratios (FIGS. 4E and 4F). […] At d12 when Mks produced more PPTs and stared to form a significant number of PLPs, the effect of shear on PPT and PLP generation was attenuated by caspase inhibitors.

SMILES	Ratio of number of MkMPs under shear flow over static conditions (Mks [1])	PLP ratio (PLP number under flow conditions over static conditions) (Mks [2]; d10 Mks)	PPT ratio (PPT number under flow conditions over static conditions) (Mks [2]; d10 Mks)	PLP ratio (PLP number under flow conditions over static conditions) (Mks [2]; d12 Mks)	PPT ratio (PPT number under flow conditions over static conditions) (Mks [2]; d12 Mks)
COC(=O)CC[C@H](NC(=O)[C@H](CC(=O)OC)NC(=O)OCc1ccccc1)C(=O)N[C@H](C(=O)N[C@@H](CC(=O)OC)C(=O)CF)C(C)C [z-DEVD.fmk]	attenuated the effect of shear stress	decreased only the PPT ratio	decreased	decreased	decreased
COC(=O)C[C@H](NC(=O)[C@H](C)NC(=O)[C@@H](NC(=O)OCc1ccccc1)C(C)C)C(=O)CF [z-VAD.fmk] (Cbz-Val-Ala-Asp(OMe)-CH2F)	only treatment with caspase-3 inhibitor (z-DEVD fmk) attenuated the effect of shear stress	no statistically significant effect	no statistically significant effect	decreased	decreased
